Reference: patent US4665082A, “Cysteine delivery system” (Cornell Research Foundation, priority 1985, dated 1987)
“Also recorded” adds a separate entry of the source. One block for each compound: values may come before it.

Columns and labels:
5-oxo-L-prolinase [1] = molecular target: T1, 5-oxo-L-prolinase (Rattus norvegicus, UniProt P97608); assay: Action of 5-oxo-L-prolinase on substrates (formation of ADP and amino acid); assay type: biochemical; settings: for Reaction with the enzyme in the presence of ATP (formation of ADP and cysteine): incubation with 5-oxo-L-prolinase and ATP, FIG. 2: 5 mM substrate
T1 construct: 5-Oxo-L-prolinase was isolated from rat kidney and freed of 5-oxoproline by gel filtration; from tissue; host or cells: rat kidney
T1 sequence (P97608 1-1288): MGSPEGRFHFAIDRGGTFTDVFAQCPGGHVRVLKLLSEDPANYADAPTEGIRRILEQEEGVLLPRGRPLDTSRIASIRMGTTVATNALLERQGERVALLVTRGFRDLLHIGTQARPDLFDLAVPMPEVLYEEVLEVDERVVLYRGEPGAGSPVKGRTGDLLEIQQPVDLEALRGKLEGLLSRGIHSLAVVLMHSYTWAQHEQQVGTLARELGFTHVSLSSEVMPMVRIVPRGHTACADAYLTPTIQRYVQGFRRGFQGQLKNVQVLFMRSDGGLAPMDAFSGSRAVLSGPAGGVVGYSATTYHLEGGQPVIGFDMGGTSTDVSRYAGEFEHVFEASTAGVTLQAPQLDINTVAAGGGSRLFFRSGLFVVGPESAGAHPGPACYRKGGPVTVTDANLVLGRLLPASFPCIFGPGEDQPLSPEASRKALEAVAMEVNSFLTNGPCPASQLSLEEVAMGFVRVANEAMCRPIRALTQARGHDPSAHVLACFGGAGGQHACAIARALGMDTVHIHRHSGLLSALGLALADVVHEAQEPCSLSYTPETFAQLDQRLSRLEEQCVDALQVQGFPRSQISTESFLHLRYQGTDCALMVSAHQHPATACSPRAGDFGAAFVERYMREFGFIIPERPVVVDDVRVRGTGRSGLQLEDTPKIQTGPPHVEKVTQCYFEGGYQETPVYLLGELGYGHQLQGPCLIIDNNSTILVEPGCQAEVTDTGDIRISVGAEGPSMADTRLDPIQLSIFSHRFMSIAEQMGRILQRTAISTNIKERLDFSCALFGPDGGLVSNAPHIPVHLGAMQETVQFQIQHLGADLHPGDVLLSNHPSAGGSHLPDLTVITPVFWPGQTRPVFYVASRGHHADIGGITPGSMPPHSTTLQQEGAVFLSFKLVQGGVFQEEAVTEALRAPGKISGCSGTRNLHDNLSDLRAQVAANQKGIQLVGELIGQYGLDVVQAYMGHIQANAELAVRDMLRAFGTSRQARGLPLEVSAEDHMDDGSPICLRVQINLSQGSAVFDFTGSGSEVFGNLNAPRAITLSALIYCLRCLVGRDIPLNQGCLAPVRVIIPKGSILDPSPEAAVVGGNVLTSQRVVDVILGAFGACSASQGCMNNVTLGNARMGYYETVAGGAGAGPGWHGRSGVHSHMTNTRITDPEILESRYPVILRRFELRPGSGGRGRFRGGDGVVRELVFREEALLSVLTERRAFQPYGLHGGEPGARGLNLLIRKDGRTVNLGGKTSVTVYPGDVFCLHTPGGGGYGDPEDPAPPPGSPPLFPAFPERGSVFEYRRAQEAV
Experimental: (§1) In the experiments the reaction mixtures were made up to contain (final volume 0.5 ml) 100 mM Na Hepes (Na salt of N-2-hydroxyethylpiperizine-N'-2ethanesulfonic acid) buffer (pH 8.0), 150 mM KCl, 8 mM MgCl2, 2 mM phosphoenolpyruvate, 5 mM ATP (adenosine triphosphate), pyruvate kinase, in excess, 20 micrograms of 5-oxoprolinase, and the substrate as indicated.
(§2) The L- and D-isomers of 2-oxothiazolidine-4-carboxylate were synthesized by the method set out in Kaneko et al, Bull, Chem. Soc. (Japan) vol. 37, pp. 242-4 (1964) as modified by the method of Shah et al, Cancer Research vol. 39, pp. 3942-7 (1979). 5-Oxo-L-prolinase was isolated from rat kidney and freed of 5-oxoproline by gel filtration. Other chemicals and materials were obtained commercially.
(§3) After incubation for 30 min. at 37° C., the reaction mixtures were treated with 0.1 volume of 1M HCl, and placed at 0° C. for 5 min.; and an equivalent volume of 1M 2-amino-2-hydroxylmethyl-1,3,-propanediol was added. Portions were analyzed for amino acids by use of a Durrum Model 500 amino acid analyzer. Cysteine was also determined in some experiments by reaction with 5,5'-dithiobis(2-nitrobenzoate (DTNB).
At the indicated intervals portions were analyzed for ADP by the method indicated in the Table footnote, and for cysteine by reaction with DTNB.

hepatic glutathione = assay: Hepatic glutathione level after injection; assay type: in vivo, mice; settings: for level of hepatic glutathione relative to controls: mice fasted overnight, intraperitoneal injection (Na salt, 6.5 mmol/kilo; D-isomer equivalent doses)
Experimental: The effect of injecting mice with L-2-oxothiazolidine-4-carboxylate on the level of hepatic glutathione was studied. […] The maximal effect was observed about 4 hours after injection. […] These findings are indicative of in vivo formation of cysteine after administration of L-2-oxothiazolidine-4-carboxylate.
Mice fastened overnight were injected intraperitoneally with NaCl (controls; dashed line) or with Na L-2-oxothiazolidine-4-carboxylate (6.5 mmol/kilo). At intervals, the mice were sacrificed and the excised liver was homogenized in 5 volumes of 1% picric acid. After centrifugation, the protein-free supernatant solutions were analyzed for glutathione by the method of Tietze, Anal. Biochem 27, 502-22 (1969). Analyses were carried out in duplicate. In a number of instances, these values were checked by the 2-vinylpyridine procedure of Griffith, Anal. Biochem. 106; 207-12 (1980); good agreement between the two methods was observed. In the figure, the points are mean values and the bars indicate the average deviation from the mean. The numbers in parentheses give the number of animals used. The value for the controls was 4.40±0.9 umol/g.

5-oxoproline metabolism = assay: In vivo metabolism of 5-oxo-L-[14C]proline (respiratory 14CO2, urinary radioactivity); parameters: species or system mice
Experimental: (§4) The in vitro results showing that L-2-oxothiazolidine-4-carboxylate inhibits utilization of 5-oxoproline were confirmed by in vivo experiments. In the latter, animals were injected with 5-oxo-L-[^14 C]proline and the respiratory [^14 CO2 ] produced was collected and measured for several hours. […] However, L-2-oxothiazolidine-4-carboxylate is a much more efficient inhibitor.
(§5) FIG. 3 depicts the inhibition of 5-oxoproline metabolism by L-2-oxothiazolidine-4-carboxylate. Mice fasted overnight were injected intraperitoneally with NaCl (Curve 1; open symbols; controls) or with Na L-2-oxothiazolidine-4-carboxylate (2.5 mmol/kilo) (Curve 2; closed symbols). After 10 min., the mice were injected subcutaneously with 5-oxo-L-[^14 C]proline (A) or with L-[^14 C]glutamate (B) (0.02 mmol; 1.1×10^6 cpm). The mice were then placed in metabolic chambers and the respiratory CO2 was collected in ethanolamine/methanol, 1:4 (vol/vol). In A, each curve represents the results on 3 animals; the points are mean values and the bars represent standard deviations from the mean. In B, each curve represents the average of closely-agreeing results obtained from 2 animals.

liver glutathione = assay: Liver glutathione in animals depleted of hepatic glutathione (acetoaminophenol); assay type: in vivo; settings: mice depleted of hepatic glutathione, compound given even two hours after acetoaminophenol
Experimental: Administration of this compound therefore provides a way of getting cysteine into cells. One cannot give cysteine itself without complications since this amino acid is toxic extracellularly. However, when the L-oxothiazolidine compound is injected it enters the cell where it is split giving rise to cysteine within the cell. In a number of clinical situations, for example, after poisoning with excessive pain-killing drugs, e.g., those containing active ingredients known as N-acetyl-para-aminophenol, paracetamol, and acetaminophen, the liver glutathione levels decrease markedly. When cysteine is supplied to liver cells, additional glutathione can be synthesized and thus serve usefully in detoxifying the offending drug. Therefore, L-2-oxothiazolidine-4-carboxylate serves as an intracellular delivery system for cysteine and has potential as a therapeutic agent in situations in which there is depletion of liver glutathione. After acetoaminophenol is given to experimental animals such as mice, the liver glutathione declines rapidly because it is extensively utilized by reaction with the drug. […] For human treatment the L-isomer, preferably in the form of its neutral salt is administered directly into the gastro-intestinal tract or introduced intravenously.

metabolism of glutamate = assay: In vivo metabolism of L-[14C]glutamate (respiratory 14CO2); settings: mice, injection of L-[14C]glutamate
Experimental: as §4, §5

5-oxo-L-prolinase [2] = molecular target: T1, 5-oxo-L-prolinase; assay: Inhibition of utilization of 5-oxo-L-proline (glutamate formation) by the purified enzyme; assay type: biochemical; settings: 1 mM 5-oxo-L-proline; under these conditions (1, 5, 10 mM)
Experimental: as §1, §2, §3
Energy for the reaction is supplied by the cleavage of ATP. […] The ratio of ADP to cysteine produced increased with time due undoubtedly to the loss of cysteine due to oxidation.

[3] = substrate 2 mM, 30 min at 37° C.

Products Formed: ADP (5-oxo-L-prolinase [1]; substrate 2 mM, 5 mM ATP, 20 micrograms enzyme, 30 min at 37° C., pH 8.0, pyruvate kinase-lactate dehydrogenase coupled assay): 930 nmol
Products Formed: Amino Acid (5-oxo-L-prolinase [1]; substrate 2 mM, footnote f: less than 5 nmol): 0 nmol
SMILES: O=C1NC[C@@H](C(=O)O)N1 [L-2-imidazolidone-4-carboxylate]

calculated Vmax value (5-oxo-L-prolinase [1]; natural substrate compared with the L-isomer): higher than that found for the L-isomer
SMILES: O=C1CC[C@@H](C(=O)O)N1 [5-Oxo-L-proline, 5-oxo-L-proline]

Reaction with the enzyme in the presence of ATP (formation of ADP and cysteine) (5-oxo-L-prolinase [1]; 5 mM ATP): rapid formation of ADP and cysteine
Products Formed: Amino Acid (after conversion to cystine) (5-oxo-L-prolinase [1]; [3]): 463 nmol
Products Formed: Amino Acid (determined after reduction with KBH4 and reaction with iodoacetamide) (5-oxo-L-prolinase [1]; [3]): 466 nmol
SMILES: O=C1N[C@H](C(=O)O)CS1 [L-2-oxothiazolidine-4-carboxylate]
free cysteine in acid extracts of the livers (hepatic glutathione; amino acid analyses after reduction by dithiothreitol and derivatization with 2-vinylpyridine): No free cysteine was detected
level of hepatic glutathione relative to controls (hepatic glutathione): about twice those of the controls
injected dose (radioactivity) excreted in urine (5-oxoproline metabolism; animals treated with L-isomer and injected with 5-oxo-L-[14C]proline, none in urine of controls): about 16%
activity on a molar basis compared with L-2-imidazolidine-4-carboxylate (inhibition of 5-oxoproline metabolism in vivo) (5-oxoproline metabolism; in vivo comparison): at least four times more active
formation of [14CO2] from injected 5-oxo-L-[14C]proline (5-oxoproline metabolism; mice, Na salt 2.5 mmol/kilo intraperitoneally, 10 min before 5-oxo-L-[14C]proline s.c.): marked decrease
liver glutathione after depletion (liver glutathione): restoration of normal hepatic glutathione levels
liver glutathione after depletion (liver glutathione; listed as L-isomer compound): an increase in liver glutathione occurs
effect on the metabolism of glutamate (metabolism of glutamate): does not have a significant effect
apparent Km value (5-oxo-L-prolinase [1]; compared with the natural substrate 5-oxo-L-proline): somewhat lower than that found for the natural substrate

Products Formed: Amino Acid (determined after reduction with KBH4 and reaction with iodoacetamide) (5-oxo-L-prolinase [1]; substrate 5 mM, footnote e: less than 20 nmol): 0 nmol
inhibition of glutamate formation (in words) (5-oxo-L-prolinase [2]): did not inhibit glutamate formation
SMILES: O=C1N[C@@H](C(=O)O)CS1 [D-2-oxothiazolidine-4-carboxylate]
level of hepatic glutathione relative to controls (hepatic glutathione): No such stimulation was observed
Reaction with the enzyme in the presence of ATP (formation of ADP and cysteine) (5-oxo-L-prolinase [1]; 5 mM ATP, listed as D-isomer): absence of reaction; also recorded: No reaction was observed
